Data as given in ChEMBL document CHEMBL1201862, “PubChem BioAssay data set” (2004).
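Cells were grown in 96-well plates and exposed to each compound for 48 hours at five concentrations; endpoints were interpolated linearly between bracketing concentrations, or set to the highest concentration if not reached. Here, GI50 denotes the concentration required for 50% inhibition of growth.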 Active and inactive are the calls of the source. No stated cut-off is given here; in the data, active = GI50 up to about 1.1 µM and inactive = higher.

What was measured:
Experiment in all cases: NCI-60 cell line screen, 48 h
786-0 = test system: 786-0
A549 = test system: A549
ACHN = test system: ACHN
BT-549 = test system: BT-549
CAKI-1 = test system: CAKI-1
CCRF-CEM = test system: CCRF-CEM
COLO 205 = test system: COLO 205
DU-145 = test system: DU-145
HCC 2998 = test system: HCC 2998
HCT-116 = test system: HCT-116
HCT-15 = test system: HCT-15
HL-60 = test system: HL-60
HOP-62 = test system: HOP-62
HOP-92 = test system: HOP-92
HT-29 = test system: HT-29
Hs-578T = test system: Hs-578T
IGROV-1 = test system: IGROV-1
K562 = test system: K562
KM12 = test system: KM12
LOX IMVI = test system: LOX IMVI
M14 = test system: M14
MCF7 = test system: MCF7
MDA-MB-231 = test system: MDA-MB-231
MDA-MB-435 = test system: MDA-MB-435
MDA-N = test system: MDA-N
MOLT-4 = test system: MOLT-4
Malme-3M = test system: Malme-3M
NCI-H23 = test system: NCI-H23
NCI-H460 = test system: NCI-H460
NCI/ADR-RES = test system: NCI/ADR-RES
OVCAR-3 = test system: OVCAR-3
OVCAR-4 = test system: OVCAR-4
OVCAR-5 = test system: OVCAR-5
PC-3 = test system: PC-3
RPMI-8226 = test system: RPMI-8226
RXF 393 = test system: RXF 393
SF-268 = test system: SF-268
SF-295 = test system: SF-295
SF-539 = test system: SF-539
SK-MEL-28 = test system: SK-MEL-28
SK-MEL-2 = test system: SK-MEL-2
SK-MEL-5 = test system: SK-MEL-5
SK-OV-3 = test system: SK-OV-3
SN12C = test system: SN12C
SNB-19 = test system: SNB-19
SNB-75 = test system: SNB-75
SR = test system: SR
SW-620 = test system: SW-620
T47D = test system: T47D
TK-10 = test system: TK-10
U-251 = test system: U-251
UACC-257 = test system: UACC-257
UACC-62 = test system: UACC-62
UO-31 = test system: UO-31
A498 = test system: A498
EKVX = test system: EKVX
NCI-H226 = test system: NCI-H226
NCI-H522 = test system: NCI-H522
OVCAR-8 = test system: OVCAR-8

Measured: GI50

Cc1ccc(/N=N/c2c(C)c(C#N)c(=S)n(C3OC(CO)C(O)C(O)C3O)c2C)cc1 (configuration not stated)
39 µM: HCT-15
inactive: 786-0 28.4 µM | A549 40.6 µM | ACHN 34 µM | BT-549 26.2 µM | CAKI-1 37.2 µM | CCRF-CEM 20 µM | COLO 205 38.7 µM | DU-145 53.1 µM | HCC 2998 21.7 µM | HCT-116 25.8 µM | HL-60 59.6 µM | HOP-62 34.3 µM | HOP-92 11.7 µM | HT-29 30.9 µM | Hs-578T 17 µM | IGROV-1 38.9 µM | K562 18.4 µM | KM12 41.1 µM | LOX IMVI 18.2 µM | M14 20.4 µM | MCF7 35.6 µM | MDA-MB-231 24.4 µM | MDA-MB-435 24.6 µM | MDA-N 36.4 µM | MOLT-4 12.9 µM | Malme-3M 21.7 µM | NCI-H23 32.1 µM | NCI-H460 23.7 µM | NCI/ADR-RES 30.5 µM | OVCAR-3 29.6 µM | OVCAR-4 34.4 µM | OVCAR-5 38.3 µM | PC-3 28.2 µM | RPMI-8226 46 µM | RXF 393 26.1 µM | SF-268 50.1 µM | SF-295 36.3 µM | SF-539 40.9 µM | SK-MEL-28 22.1 µM | SK-MEL-2 30.6 µM | SK-MEL-5 17.4 µM | SK-OV-3 34.7 µM | SN12C 28.2 µM | SNB-19 27.7 µM | SNB-75 25.4 µM | SR 26 µM | SW-620 16 µM | T47D 23.3 µM | TK-10 63.1 µM | U-251 21.2 µM | UACC-257 63 µM | UACC-62 13.5 µM | UO-31 37.5 µM

CC1C2CCC3C(O)C2(CC(O)C2(O)C1CC(O)C2(C)C)CC3(C)O (configuration not stated)
inactive: 786-0 > 100 µM | A498 > 100 µM | A549 > 100 µM | ACHN > 100 µM | BT-549 > 100 µM | CAKI-1 > 100 µM | CCRF-CEM > 100 µM | COLO 205 > 100 µM | DU-145 > 100 µM | EKVX > 100 µM | HCC 2998 > 100 µM | HCT-116 > 100 µM | HL-60 > 100 µM | HOP-92 > 100 µM | HT-29 > 100 µM | Hs-578T > 100 µM | IGROV-1 > 100 µM | K562 > 100 µM | KM12 > 100 µM | LOX IMVI > 100 µM | M14 > 100 µM | MCF7 > 100 µM | MDA-MB-231 35.8 µM | MDA-MB-435 > 100 µM | MDA-N > 100 µM | MOLT-4 > 10 µM | Malme-3M > 100 µM | NCI-H226 > 100 µM | NCI-H23 > 100 µM | NCI-H460 > 100 µM | NCI-H522 > 100 µM | NCI/ADR-RES > 100 µM | OVCAR-4 > 100 µM | OVCAR-5 > 100 µM | OVCAR-8 > 100 µM | PC-3 > 100 µM | SF-268 > 100 µM | SF-295 > 100 µM | SF-539 > 100 µM | SK-MEL-28 > 100 µM | SK-MEL-2 > 100 µM | SK-MEL-5 > 100 µM | SK-OV-3 > 100 µM | SN12C > 100 µM | SNB-19 > 100 µM | SR > 100 µM | SW-620 > 100 µM | T47D > 100 µM | TK-10 > 100 µM | U-251 > 100 µM | UACC-257 > 100 µM | UACC-62 > 100 µM | UO-31 > 100 µM
> 100 µM: HCT-15

O=C(O)CNC(=O)CO/N=C1/C(=C2/C(=O)Nc3ccccc32)Nc2ccccc21
51.8 µM: HCT-15
inactive: 786-0 > 100 µM | A549 86.5 µM | ACHN > 100 µM | BT-549 > 100 µM | CAKI-1 28.1 µM | CCRF-CEM 42.8 µM | COLO 205 46.2 µM | DU-145 > 100 µM | EKVX 94.6 µM | HCC 2998 47 µM | HCT-116 > 100 µM | HL-60 57.9 µM | HOP-62 27.4 µM | HOP-92 > 100 µM | HT-29 > 100 µM | Hs-578T > 100 µM | IGROV-1 72.6 µM | K562 > 100 µM | KM12 4.9 µM | LOX IMVI > 100 µM | M14 > 100 µM | MCF7 72.4 µM | MDA-MB-231 > 100 µM | MDA-MB-435 > 100 µM | MDA-N 84.9 µM | MOLT-4 70.3 µM | Malme-3M > 100 µM | NCI-H226 > 100 µM | NCI-H23 > 100 µM | NCI-H460 > 100 µM | NCI-H522 > 100 µM | NCI/ADR-RES > 100 µM | OVCAR-3 42.2 µM | OVCAR-4 > 100 µM | OVCAR-5 > 100 µM | OVCAR-8 > 100 µM | PC-3 60.8 µM | RPMI-8226 > 100 µM | RXF 393 55.1 µM | SF-268 > 100 µM | SF-295 > 100 µM | SF-539 > 100 µM | SK-MEL-28 > 100 µM | SK-MEL-2 > 100 µM | SK-MEL-5 54.2 µM | SK-OV-3 20.9 µM | SN12C > 100 µM | SNB-19 70.5 µM | SNB-75 > 100 µM | SR 38.5 µM | SW-620 > 100 µM | T47D 56.9 µM | TK-10 > 100 µM | U-251 > 100 µM | UACC-257 > 100 µM | UACC-62 > 100 µM | UO-31 26.5 µM

[O-]c1c2cc(-[n+]3c(-c4ccccc4)cc(-c4ccccc4)cc3-c3ccccc3)cc1CO[C@@H](c1ccccc1)[C@H](c1ccccc1)OCc1cccc(n1)CO[C@@H](c1ccccc1)[C@H](c1ccccc1)OC2
inactive: NCI/ADR-RES 1.97 µM
0.74 µM: HCT-15
active: 786-0 0.0764 µM | A498 0.867 µM | A549 0.0536 µM | ACHN 0.304 µM | BT-549 0.057 µM | CAKI-1 0.367 µM | CCRF-CEM 0.0314 µM | COLO 205 0.0259 µM | DU-145 0.326 µM | EKVX 0.0838 µM | HCC 2998 0.453 µM | HCT-116 0.0286 µM | HL-60 0.0215 µM | HOP-62 0.169 µM | HOP-92 0.0322 µM | HT-29 0.0318 µM | Hs-578T 0.676 µM | IGROV-1 0.0388 µM | K562 0.0293 µM | KM12 0.0383 µM | LOX IMVI 0.0498 µM | M14 0.161 µM | MCF7 0.0388 µM | MDA-MB-231 0.16 µM | MDA-MB-435 0.0501 µM | MDA-N 0.0548 µM | MOLT-4 0.0526 µM | Malme-3M 0.0363 µM | NCI-H23 0.0569 µM | NCI-H460 0.056 µM | NCI-H522 0.0353 µM | OVCAR-3 0.0299 µM | OVCAR-4 0.09 µM | OVCAR-5 0.514 µM | OVCAR-8 0.0488 µM | PC-3 0.0373 µM | RPMI-8226 0.0135 µM | RXF 393 0.219 µM | SF-268 0.0689 µM | SF-295 0.102 µM | SF-539 0.371 µM | SK-MEL-28 0.713 µM | SK-MEL-2 0.0569 µM | SK-MEL-5 0.0424 µM | SK-OV-3 0.0775 µM | SN12C 0.0378 µM | SNB-19 0.0514 µM | SNB-75 0.0682 µM | SR 0.035 µM | SW-620 0.0568 µM | T47D 0.111 µM | TK-10 0.594 µM | U-251 0.0285 µM | UACC-257 0.0803 µM | UACC-62 0.0931 µM | UO-31 0.625 µM

COc1cc(S(=O)(=O)Nc2nc(-c3ccc(/N=C/c4cccs4)cc3)cs2)ccc1Cl
inactive: 786-0 > 100 µM | A498 > 100 µM | A549 > 100 µM | ACHN > 100 µM | BT-549 37 µM | CAKI-1 > 100 µM | CCRF-CEM 33.7 µM | COLO 205 > 100 µM | DU-145 > 100 µM | EKVX > 100 µM | HCC 2998 > 100 µM | HCT-116 54.6 µM | HL-60 33.9 µM | HOP-62 > 100 µM | HOP-92 37.2 µM | HT-29 > 100 µM | Hs-578T > 100 µM | IGROV-1 33.7 µM | K562 33.5 µM | KM12 67.1 µM | LOX IMVI 31 µM | M14 > 100 µM | MCF7 36.6 µM | MDA-MB-231 95.1 µM | MDA-MB-435 > 100 µM | MDA-N > 100 µM | MOLT-4 27.5 µM | Malme-3M > 100 µM | NCI-H226 > 100 µM | NCI-H23 47.1 µM | NCI-H460 > 100 µM | NCI-H522 28.4 µM | NCI/ADR-RES > 100 µM | OVCAR-3 27.5 µM | OVCAR-4 38.9 µM | OVCAR-5 > 100 µM | OVCAR-8 40.7 µM | PC-3 76.2 µM | RXF 393 20.4 µM | SF-268 56.6 µM | SF-295 > 100 µM | SF-539 34 µM | SK-MEL-28 > 100 µM | SK-MEL-2 39.5 µM | SK-MEL-5 > 100 µM | SK-OV-3 > 100 µM | SN12C 28.8 µM | SNB-19 > 100 µM | SNB-75 33.8 µM | SR 21.7 µM | SW-620 35.5 µM | T47D 84.3 µM | TK-10 > 100 µM | U-251 81.1 µM | UACC-257 > 100 µM | UACC-62 19.8 µM | UO-31 58.6 µM
36.1 µM: HCT-15
